Data on 23 compounds can be found in patent US11497752B2, “Compounds and uses thereof” (Foghorn Therapeutics Inc., priority 2018, dated 2022).

Assay [1] addresses BRG-1 (Homo sapiens, UniProt P51532). Put plainly: ATPase catalytic activity of BRG-1 (ADP-Glo in vitro biochemical assay). The conditions noted are these: for BRG1 Max % Inhibition: Table 6. Background: ADP-Glo turns the ADP formed in a reaction into a luminescent signal.
Assay [2] has as its target BRM (Homo sapiens, UniProt P51531). As to the kind of experiment: ATPase catalytic activity of BRM (ADP-Glo in vitro biochemical assay). To be noted: for BRM Max % Inhibition: Table 6.

Sequence of BRM (P51531 whole entry): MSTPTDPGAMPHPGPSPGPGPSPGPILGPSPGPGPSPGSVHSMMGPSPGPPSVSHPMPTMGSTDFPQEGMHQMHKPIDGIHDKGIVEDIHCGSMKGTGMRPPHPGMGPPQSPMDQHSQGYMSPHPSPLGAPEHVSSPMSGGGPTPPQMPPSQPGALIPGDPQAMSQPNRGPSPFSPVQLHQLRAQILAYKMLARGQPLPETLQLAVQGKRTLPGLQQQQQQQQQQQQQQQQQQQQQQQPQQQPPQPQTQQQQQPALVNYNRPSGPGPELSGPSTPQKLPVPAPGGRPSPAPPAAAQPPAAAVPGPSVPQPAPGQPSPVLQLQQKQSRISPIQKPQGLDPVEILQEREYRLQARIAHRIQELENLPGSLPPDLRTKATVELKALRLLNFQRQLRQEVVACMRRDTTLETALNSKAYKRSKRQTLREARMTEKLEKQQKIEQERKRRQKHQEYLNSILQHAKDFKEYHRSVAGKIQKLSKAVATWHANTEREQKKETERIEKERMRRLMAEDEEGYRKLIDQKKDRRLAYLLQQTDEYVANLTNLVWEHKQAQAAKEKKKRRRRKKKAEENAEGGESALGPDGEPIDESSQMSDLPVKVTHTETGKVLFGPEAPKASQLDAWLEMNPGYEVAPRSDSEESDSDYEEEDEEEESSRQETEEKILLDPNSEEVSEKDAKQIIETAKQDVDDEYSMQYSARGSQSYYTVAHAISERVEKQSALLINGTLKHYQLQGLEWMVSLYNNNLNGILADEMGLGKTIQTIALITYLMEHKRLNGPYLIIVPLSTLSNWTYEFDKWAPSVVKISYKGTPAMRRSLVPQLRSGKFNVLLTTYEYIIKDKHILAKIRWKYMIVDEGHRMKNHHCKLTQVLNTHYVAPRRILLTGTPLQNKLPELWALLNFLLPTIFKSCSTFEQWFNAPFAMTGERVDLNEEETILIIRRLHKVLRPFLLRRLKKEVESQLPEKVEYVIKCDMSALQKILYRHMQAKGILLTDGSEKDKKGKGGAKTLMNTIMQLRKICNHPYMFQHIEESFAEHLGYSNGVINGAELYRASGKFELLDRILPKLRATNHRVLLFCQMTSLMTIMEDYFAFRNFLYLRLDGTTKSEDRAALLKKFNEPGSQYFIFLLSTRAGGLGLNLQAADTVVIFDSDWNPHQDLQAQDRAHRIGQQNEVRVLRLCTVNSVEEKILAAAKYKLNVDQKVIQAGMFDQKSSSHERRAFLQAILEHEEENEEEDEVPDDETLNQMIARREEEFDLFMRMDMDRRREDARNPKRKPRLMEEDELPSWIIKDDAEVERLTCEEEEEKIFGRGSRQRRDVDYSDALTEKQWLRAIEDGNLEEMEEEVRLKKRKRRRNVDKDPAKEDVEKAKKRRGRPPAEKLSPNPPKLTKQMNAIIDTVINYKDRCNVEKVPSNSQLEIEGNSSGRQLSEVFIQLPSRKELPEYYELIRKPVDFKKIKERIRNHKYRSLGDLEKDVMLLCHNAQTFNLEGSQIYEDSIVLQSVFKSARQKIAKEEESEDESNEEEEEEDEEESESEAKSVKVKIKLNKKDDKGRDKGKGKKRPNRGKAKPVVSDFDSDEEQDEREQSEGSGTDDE
Sequence of BRG-1 (P51532 whole entry): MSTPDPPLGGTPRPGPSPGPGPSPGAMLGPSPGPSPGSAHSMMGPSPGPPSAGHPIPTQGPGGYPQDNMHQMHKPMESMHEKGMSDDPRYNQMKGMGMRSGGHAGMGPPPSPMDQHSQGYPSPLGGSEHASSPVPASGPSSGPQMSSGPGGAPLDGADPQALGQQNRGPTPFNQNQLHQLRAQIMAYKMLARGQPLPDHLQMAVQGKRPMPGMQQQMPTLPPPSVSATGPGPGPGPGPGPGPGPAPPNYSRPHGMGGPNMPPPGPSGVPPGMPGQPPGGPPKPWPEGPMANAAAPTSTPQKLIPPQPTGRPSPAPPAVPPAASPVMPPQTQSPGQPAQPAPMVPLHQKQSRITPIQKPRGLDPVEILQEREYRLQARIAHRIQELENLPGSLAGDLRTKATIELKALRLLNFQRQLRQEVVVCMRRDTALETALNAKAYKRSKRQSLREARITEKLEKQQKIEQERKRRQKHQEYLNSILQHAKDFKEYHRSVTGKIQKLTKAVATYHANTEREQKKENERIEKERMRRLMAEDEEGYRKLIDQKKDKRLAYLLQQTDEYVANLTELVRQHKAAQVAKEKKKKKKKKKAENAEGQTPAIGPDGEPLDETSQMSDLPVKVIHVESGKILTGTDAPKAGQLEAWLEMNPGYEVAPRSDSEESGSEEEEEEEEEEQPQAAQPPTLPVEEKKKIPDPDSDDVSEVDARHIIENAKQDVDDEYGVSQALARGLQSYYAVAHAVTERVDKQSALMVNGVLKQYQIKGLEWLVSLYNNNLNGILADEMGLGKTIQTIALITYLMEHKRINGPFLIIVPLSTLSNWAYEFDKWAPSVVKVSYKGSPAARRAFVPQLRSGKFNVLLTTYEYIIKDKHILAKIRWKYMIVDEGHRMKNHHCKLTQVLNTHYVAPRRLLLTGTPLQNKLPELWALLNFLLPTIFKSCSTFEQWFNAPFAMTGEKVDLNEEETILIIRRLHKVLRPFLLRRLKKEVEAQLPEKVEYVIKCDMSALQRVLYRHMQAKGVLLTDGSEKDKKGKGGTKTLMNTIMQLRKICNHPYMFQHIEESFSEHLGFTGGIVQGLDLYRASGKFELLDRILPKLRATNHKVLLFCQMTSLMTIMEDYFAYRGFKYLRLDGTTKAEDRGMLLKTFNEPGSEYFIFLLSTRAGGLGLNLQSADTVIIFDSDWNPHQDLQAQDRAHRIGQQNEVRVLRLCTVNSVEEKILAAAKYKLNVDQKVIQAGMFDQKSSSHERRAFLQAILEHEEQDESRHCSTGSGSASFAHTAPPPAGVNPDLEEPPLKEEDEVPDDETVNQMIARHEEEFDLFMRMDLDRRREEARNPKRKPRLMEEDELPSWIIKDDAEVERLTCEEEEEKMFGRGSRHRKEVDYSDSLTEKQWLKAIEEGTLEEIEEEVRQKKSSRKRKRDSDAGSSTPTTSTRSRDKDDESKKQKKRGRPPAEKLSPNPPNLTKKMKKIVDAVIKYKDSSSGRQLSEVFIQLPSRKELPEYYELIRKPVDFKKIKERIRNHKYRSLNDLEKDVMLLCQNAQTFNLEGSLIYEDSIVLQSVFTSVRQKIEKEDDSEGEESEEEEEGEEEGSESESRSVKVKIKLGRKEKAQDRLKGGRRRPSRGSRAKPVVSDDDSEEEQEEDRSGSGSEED

As a reminder, the IC50 is the concentration that inhibits the measured activity by half. Consider `Nc1ccc(C(=O)NCC(=O)Nc2nc(-c3cccc(-c4ccnc(CO)c4)c3)cs2)cc1` [Compound 165, 4-amino-N-(2-((4-(3-(2-(hydroxymethyl)pyridin-4-yl)phenyl)thiazol-2-yl)amino)-2-oxoethyl)benzamide], for which, in assay [1], the IC50 was less than 100 nM and the “BRG1 Max % Inhibition” value is reported as greater than 95%. Besides, in assay [2], the IC50 was less than 100 nM and the “BRM Max % Inhibition” value is on record as greater than 95%.

Turning to `NCCn1ccc(-c2cccc(-c3csc(NC(=O)CNC(=O)c4ccc(N)cc4)n3)c2)cc1=O` [Compound 166, 4-amino-N-(2-((4-(3-(1-(2-aminoethyl)-2-oxo-1,2-dihydropyridin-4-yl)phenyl)thiazol-2-yl)amino)-2-oxoethyl)benzamide], in assay [1], the IC50 lay in the range of 100 to 1000 nM and the “BRG1 Max % Inhibition” value is reported as greater than 95%. Besides, in assay [2], the IC50 is 100 to 1000 nM and the “BRM Max % Inhibition” value is recorded as greater than 95%.

Consider `CN(C)CCn1ccc2ccc(-c3csc(NC(=O)CNC(=O)c4ccc(N)cc4)n3)cc2c1=O` [Compound 167, 4-amino-N-(2-((4-(2-(2-(dimethylamino)ethyl)-1-oxo-1,2-dihydroisoquinolin-7-yl)thiazol-2-yl)amino)-2-oxoethyl)benzamide], for which, in assay [1], the IC50 fell in the range of 100 to 1000 nM and the “BRG1 Max % Inhibition” value was greater than 95%. For the same compound, in assay [2], the IC50 was in the range of 100 to 1000 nM and the “BRM Max % Inhibition” value was greater than 95%.

With `CN(C)Cc1cc(-c2cccc(-c3csc(NC(=O)CNC(=O)c4ccc(N)cc4)n3)c2)ccn1` [Compound 168, 4-amino-N-(2-((4-(3-(2-((dimethylamino)methyl)pyridin-4-yl)phenyl)thiazol-2-yl)amino)-2-oxoethyl)benzamide], in assay [1], the concentration for half-maximal inhibition (IC50) is less than 100 nM and the “BRG1 Max % Inhibition” value is greater than 95%. Also, in assay [2], the IC50 was less than 100 nM and the “BRM Max % Inhibition” value is reported as greater than 95%.

Consider `NCC1CCC(c2cccc(-c3csc(NC(=O)CNC(=O)c4ccc(N)cc4)n3)c2)CC1` (centres unmarked) [Compound 169, 4-amino-N-(2-((4-(3-(4-(aminomethyl)cyclohexyl)phenyl)thiazol-2-yl)amino)-2-oxoethyl)benzamide], for which, in assay [1], the IC50 lay in the range of 100 to 1000 nM and the “BRG1 Max % Inhibition” value is listed as greater than 95%. In addition, in assay [2], the IC50 was in the range of 100 to 1000 nM and the “BRM Max % Inhibition” value is listed as greater than 95%.

Turning to `CN(C)CCn1cc(-c2cccc(-c3csc(NC(=O)CNC(=O)c4ccc(N)cc4)n3)c2)ccc1=O` [Compound 170, 4-amino-N-(2-((4-(3-(1-(2-(dimethylamino)ethyl)-6-oxo-1,6-dihydropyridin-3-yl)phenyl)thiazol-2-yl)amino)-2-oxoethyl)benzamide], in assay [1], the IC50 lay in the range of 100 to 1000 nM and the “BRG1 Max % Inhibition” value is reported as greater than 95%. For the same compound, in assay [2], the IC50 was 100 to 1000 nM and the “BRM Max % Inhibition” value is greater than 95%.

In the case of `NCCn1ccc2ccc(-c3csc(NC(=O)CNC(=O)c4ccc(N)cc4)n3)cc2c1=O` [Compound 171, 4-amino-N-(2-((4-(2-(2-aminoethyl)-1-oxo-1,2-dihydroisoquinolin-7-yl)thiazol-2-yl)amino)-2-oxoethyl)benzamide], in assay [1], the IC50 was in the range of 100 to 1000 nM and the “BRG1 Max % Inhibition” value is reported as greater than 95%. In assay [2], the IC50 is 100 to 1000 nM and the “BRM Max % Inhibition” value is on record as greater than 95%.

On to `Nc1ccc(C(=O)N[C@@H](CO)C(=O)Nc2nc(-c3cccc(-c4ccncc4)c3)cs2)cc1` [Compound 172, (S)-4-amino-N-(3-hydroxy-1-oxo-1-((4-(3-(pyridin-4-yl)phenyl)thiazol-2-yl)amino)propan-2-yl)benzamide], for which, in assay [1], the IC50 fell in the range of 100 to 1000 nM and the “BRG1 Max % Inhibition” value is recorded as greater than 90%. In assay [2], the IC50 was in the range of 100 to 1000 nM and the “BRM Max % Inhibition” value is given as greater than 95%.

`Nc1ccc(C(=O)NCC(=O)Nc2nc(C3CCCN(c4cccnc4)C3)cs2)cc1` (centres unmarked) [Compound 173, 4-amino-N-(2-oxo-2-((4-(1-(pyridin-3-yl)piperidin-3-yl)thiazol-2-yl)amino)ethyl)benzamide]: in assay [1], the IC50 was in the range of 100 to 1000 nM and the “BRG1 Max % Inhibition” value is on record as greater than 90%. In assay [2], the IC50 is 100 to 1000 nM and the “BRM Max % Inhibition” value is greater than 90%.

As to `NC[C@H]1CC[C@H](c2cccc(-c3csc(NC(=O)CNC(=O)c4ccc(N)cc4)n3)c2)CC1` [Compound 174, 4-amino-N-(2-((4-(3-((1r,4r)-4-(aminomethyl)cyclohexyl)phenyl)thiazol-2-yl)amino)-2-oxoethyl)benzamide], in assay [1], the IC50 lay within 100 to 1000 nM and the “BRG1 Max % Inhibition” value was greater than 80%. In assay [2], the IC50 lay within 100 to 1000 nM and the “BRM Max % Inhibition” value is listed as greater than 80%.

For `NC[C@H]1CC[C@@H](c2cccc(-c3csc(NC(=O)CNC(=O)c4ccc(N)cc4)n3)c2)CC1` [Compound 175, 4-amino-N-(2-((4-(3-((1s,4s)-4-(aminomethyl)cyclohexyl)phenyl)thiazol-2-yl)amino)-2-oxoethyl)benzamide], in assay [1], the IC50 was 100 to 1000 nM and the “BRG1 Max % Inhibition” value is reported as greater than 80%. Also, in assay [2], the IC50 was in the range of 100 to 1000 nM and the “BRM Max % Inhibition” value is greater than 90%.

In the case of `Nc1ccc(C(=O)NCC(=O)Nc2nc(-c3cccc(-c4cnn(CC(=O)O)c4)c3)cs2)cc1` [Compound 176, 2-(4-(3-(2-(2-(4-aminobenzamido)acetamido)thiazol-4-yl)phenyl)-1H-pyrazol-1-yl)acetic acid], in assay [1], the IC50 lay in the range of 100 to 1000 nM and the “BRG1 Max % Inhibition” value is greater than 80%. In addition, in assay [2], the IC50 fell in the range of 100 to 1000 nM and the “BRM Max % Inhibition” value is greater than 90%.

As to `COC(=O)Cc1cc(-c2cccc(-c3csc(NC(=O)CNC(=O)c4ccc(N)cc4)n3)c2)ccn1` [Compound 177, methyl 2-(4-(3-(2-(2-(4-aminobenzamido)acetamido)thiazol-4-yl)phenyl)pyridin-2-yl)acetate], in assay [1], the IC50 is less than 100 nM and the “BRG1 Max % Inhibition” value is greater than 95%. For the same compound, in assay [2], the half-inhibitory concentration (IC50) was less than 100 nM and the “BRM Max % Inhibition” value was greater than 95%.

As for `COCC[C@H](NC(=O)c1ccc(N)cc1)C(=O)Nc1nc(-c2cccc(-c3ccncc3)c2)cs1` [Compound 178, (S)-4-amino-N-(4-methoxy-1-oxo-1-((4-(3-(pyridin-4-yl)phenyl)thiazol-2-yl)amino)butan-2-yl)benzamide], in assay [1], the IC50 is less than 100 nM and the “BRG1 Max % Inhibition” value was greater than 95%. Moreover, in assay [2], the IC50 is less than 100 nM and the “BRM Max % Inhibition” value is on record as greater than 95%.

For the compound `Nc1ccc(C(=O)NCC(=O)Nc2nc(-c3cccc(N4CCOCC4)c3)cs2)cc1` [Compound 179, 4-amino-N-(2-((4-(3-morpholinophenyl)thiazol-2-yl)amino)-2-oxoethyl)benzamide], in assay [1], the IC50 fell in the range of 100 to 1000 nM and the “BRG1 Max % Inhibition” value is greater than 95%. In assay [2], the IC50 is 100 to 1000 nM and the “BRM Max % Inhibition” value is reported as greater than 90%.

Regarding `COC(=O)Cn1cc(-c2cccc(-c3csc(NC(=O)CNC(=O)c4ccc(N)cc4)n3)c2)cn1` [Compound 180, methyl 2-(4-(3-(2-(2-(4-aminobenzamido)acetamido)thiazol-4-yl)phenyl)-1H-pyrazol-1-yl)acetate], in assay [1], the IC50 lay in the range of 100 to 1000 nM and the “BRG1 Max % Inhibition” value is on record as greater than 95%. Besides, in assay [2], the concentration for half-maximal inhibition (IC50) lay within 100 to 1000 nM and the “BRM Max % Inhibition” value is greater than 90%.

`COC(=O)c1cc(-c2cccc(-c3csc(NC(=O)CNC(=O)c4ccc(N)cc4)n3)c2)ccn1` [Compound 181, methyl 4-(3-(2-(2-(4-aminobenzamido)acetamido)thiazol-4-yl)phenyl)picolinate]: in assay [1], the IC50 is less than 100 nM and the “BRG1 Max % Inhibition” value is on record as greater than 95%. In assay [2], the half-maximal inhibitory concentration (IC50) was less than 100 nM and the “BRM Max % Inhibition” value is on record as greater than 95%.

Take `COC(=O)C(C)(C)c1cc(-c2cccc(-c3csc(NC(=O)CNC(=O)c4ccc(N)cc4)n3)c2)ccn1` [Compound 182, methyl 2-(4-(3-(2-(2-(4-aminobenzamido)acetamido)thiazol-4-yl)phenyl)pyridin-2-yl)-2-methylpropanoate]: in assay [1], the IC50 fell in the range of 100 to 1000 nM and the “BRG1 Max % Inhibition” value is given as greater than 90%. In assay [2], the IC50 was less than 100 nM and the “BRM Max % Inhibition” value is listed as greater than 95%.

Regarding `CC(=O)N(C)c1cc(-c2cccc(-c3csc(NC(=O)CNC(=O)c4ccc(N)cc4)n3)c2)ccn1` [Compound 183, 4-amino-N-(2-((4-(3-(2-(N-methylacetamido)pyridin-4-yl)phenyl)thiazol-2-yl)amino)-2-oxoethyl)benzamide], in assay [1], the IC50 was less than 100 nM and the “BRG1 Max % Inhibition” value was greater than 95%. Moreover, in assay [2], the concentration for half-maximal inhibition (IC50) was less than 100 nM and the “BRM Max % Inhibition” value is recorded as greater than 95%.

With `Nc1ccc(C(=O)NCC(=O)Nc2nc(-c3cccc(-c4ccncc4)c3)cs2)nc1` [Compound 184, 5-amino-N-(2-oxo-2-((4-(3-(pyridin-4-yl)phenyl)thiazol-2-yl)amino)ethyl)picolinamide], in assay [1], the IC50 was less than 100 nM and the “BRG1 Max % Inhibition” value is reported as greater than 70%. In assay [2], the IC50 was less than 100 nM and the “BRM Max % Inhibition” value was greater than 80%.

As to `Nc1ccc(C(=O)NCC(=O)Nc2nc(-c3cccc(N4CCS(=O)(=O)CC4)c3)cs2)cc1` [Compound 185, 4-amino-N-(2-((4-(3-(1,1-dioxidothiomorpholino)phenyl)thiazol-2-yl)amino)-2-oxoethyl)benzamide], in assay [1], the IC50 lay within 100 to 1000 nM and the “BRG1 Max % Inhibition” value is greater than 70%. For the same compound, in assay [2], the IC50 was in the range of 100 to 1000 nM and the “BRM Max % Inhibition” value is on record as greater than 80%.

Turning to `CN(C)CCNC(=O)Cc1cc(-c2cccc(-c3csc(NC(=O)CNC(=O)c4ccc(N)cc4)n3)c2)ccn1` [Compound 186, 4-amino-N-[2-[[4-[3-[2-[2-[2-(dimethylamino)ethylamino]-2-oxo-ethyl]-4-pyridyl]phenyl]thiazol-2-yl]amino]-2-oxo-ethyl]benzamide], in assay [1], the IC50 is 100 to 1000 nM and the “BRG1 Max % Inhibition” value was greater than 95%. In assay [2], the IC50 was 100 to 1000 nM and the “BRM Max % Inhibition” value is reported as greater than 95%.

For the compound `Nc1ccc(C(=O)NCC(=O)Nc2nc(-c3cccc(N4CCC(C(=O)O)CC4)c3)cs2)cc1` [Compound 187, 1-[3-[2-[[2-[(4-aminobenzoyl)amino]acetyl]amino]thiazol-4-yl]phenyl]piperidine-4-carboxylic acid], in assay [1], the IC50 was in the range of 100 to 1000 nM and the “BRG1 Max % Inhibition” value is given as greater than 60%. In assay [2], the IC50 was in the range of 100 to 1000 nM and the “BRM Max % Inhibition” value is on record as greater than 70%.
